Paper PMC10746280, “Bacterial efflux pump modulators prevent bacterial growth in macrophages and under broth conditions that mimic the host environment” (mBio, 2023)

Columns and labels:
[1] = system: RAW 264.7 macrophages; test: SAFIRE macrophage assay: host toxicity (adherent macrophage count, morphology); type: cell-based; conditions: for toxicity to infected macrophages in SAFIRE: 16 h after treatment
Method in brief: (§1)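 RAW 264.7 macrophages infected with S. Typhimurium SL1344 sifB::gfp (MOI ~30), gentamicin 40 µg/mL, then compound from 2 h to 18 h post-infection. Confocal imaging with MitoTracker and DAPI; toxicity as adherent MitoTracker-positive macrophage count, bacterial load as GFP+ macrophage area.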

[2] = system: S. Typhimurium SL1344 (sifB::gfp) in RAW 264.7 macrophages; test: SAFIRE macrophage assay: intracellular bacterial load (GFP signal within macrophages); type: cell-based, Salmonella enterica serotype Typhimurium; conditions: for 5 uM Avg Antibacterial Score / 25 uM Avg Antibacterial Score: 'Toxic' given instead of a score; for IC50: Salmonella enterica, TYPHIMURIUM, RAW264.7, read-out: SAFIRE IC50
Method in brief: as §1

Compound	5 uM Avg Cell # Score [1]	25 uM Avg Cell # Score [1]	5 uM Avg Antibacterial Score [2]	25 uM Avg Antibacterial Score [2]	IC50 [2]	toxicity to infected macrophages in SAFIRE [1]
OC(COc1ccc(Cl)cc1)CN1CCC(NC2CC2)C1 (centres unmarked) [CU140]	122	130	87	73		
OC(COc1ccccc1Cl)CN1CCC(NC2CC2)C1 (centres unmarked) [CU141]	116	137	81	79		
CN(C)C1CCN(CC(O)COc2ccc(Cl)c(Cl)c2)C1 (centres unmarked) [CU142]	104	113	77	47		
CN(CC(O)COc1ccc(Cl)c(Cl)c1)C1CCNC1 (centres unmarked) [CU143]	113	117	84	55		
NC1CCCN(CC(O)COc2ccc(Cl)c(Cl)c2)C1 (centres unmarked) [CU144]	99	105	63	29		
OC(COc1ccc(Cl)c(Cl)c1)CN1CCCNCC1 (centres unmarked) [CU145]	94	120	69	39		
O=C1OC(COc2ccc(Cl)c(Cl)c2)CN1C1CCNC1 (centres unmarked) [CU146]	95	117	89	51		
CSc1ccc(OCC(O)CN2CCC(Nc3nccc(C(F)(F)F)n3)CC2)cc1 (centres unmarked) [CU147]	121	43	72	Toxic		
Cc1ccc(Cl)c(OCC(O)CN2CCC(Nc3nccc(C(F)(F)F)n3)CC2)c1 (centres unmarked) [CU148]	123	39	48	Toxic		
OC(COc1ccc(Cl)c(Cl)c1)CN1CCC2(CCN2)C1 (centres unmarked) [CU149]	128	108	73	53		
NC1CCN(CC(O)COc2ccccc2)C1 (centres unmarked) [CU151]	128	147	108	91		
COc1ccc(OCC(O)CN2CCC(N)C2)cc1 (centres unmarked) [CU152]	116	142	103	91		
NC1CCN(CC(O)COc2ccc(F)cc2)C1 (centres unmarked) [CU153]	103	131	106	85		
N#Cc1ccc(OCC(O)CN2CCC(N)C2)cc1 (centres unmarked) [CU154]	99	123	112	111		
OC(CNCc1csc(Cl)c1)COc1ccc(Cl)c(Cl)c1 (centres unmarked) [CU155]	95	78	107	Toxic		
OC(COc1ccc(Cl)c(Cl)c1)CN1CCn2cnnc2C1 (centres unmarked) [CU156]	97	124	110	107		
OC(COc1ccc(Cl)c(Cl)c1)CN1CCn2c([3F])nnc2C1 (centres unmarked) [CU157]	109	106	115	109		
OC(COc1ccc(Cl)c(Cl)c1)CN1CCC(Oc2ncccn2)CC1 (centres unmarked) [CU158]	106	103	110	61		
OC(CNC1Cc2ccccc2C1)COc1ccc(Cl)c(Cl)c1 (centres unmarked) [CU159]	117	97	102	Toxic		

Compound	5 uM Avg Cell # Score [1]	25 uM Avg Cell # Score [1]	5 uM Avg Antibacterial Score [2]	25 uM Avg Antibacterial Score [2]	IC50 [2]	toxicity to infected macrophages in SAFIRE [1]
NC1CCN(C[C@H](O)COc2ccc(Cl)c(Cl)c2)C1 (some centres unmarked) [CU160]	137	129	51	35	2.6 nM	
NC1CCN(C[C@@H](O)COc2ccc(Cl)c(Cl)c2)C1 (some centres unmarked) [CU161]	138	113	55	33	81.4 nM	non-toxic
CNC1CCN(C[C@H](O)COc2ccc(Cl)c(Cl)c2)C1 (some centres unmarked) [CU162]	124	126	68	46		
CNC1CCN(C[C@@H](O)COc2ccc(Cl)c(Cl)c2)C1 (some centres unmarked) [CU163]	101	111	65	47		
OC1CCN(CC(O)COc2ccc(Cl)c(Cl)c2)CC1 (centres unmarked) [CU164]	98	126	106	82		
NC1CCN(CC(O)COc2ccc(Cl)cc2)C1 (centres unmarked) [CU165]	105	109	63	32		
NC1CCN(CC(O)COc2ccc(Cl)cc2Cl)C1 (centres unmarked) [CU166]	105	108	44	19		
NC1CCN(CC(O)COc2ccc(F)cc2F)C1 (centres unmarked) [CU167]	109	113	75	58		
CCOC(=O)c1cccc(OCC(O)CN2CCC(N)C2)c1 (centres unmarked) [CU168]	101	111	73	55		
OC(COc1ccc(F)c(F)c1)CN1CCC(Nc2nccc(C(F)(F)F)n2)CC1 (centres unmarked) [CU169]	106	91	84	6		
OC(COc1ccc(F)c(F)c1)CN1CCC(Nc2ncccn2)CC1 (centres unmarked) [CU170]	100	107	109	107		
NC1CCN(CC(O)COc2ccc(F)c(F)c2)CC1 (centres unmarked) [CU171]	108	96	61	45		
NC1CCN(CC(O)COc2ccc(F)c(F)c2)C1 (centres unmarked) [CU172]	108	103	70	57		
NC1CCN(CC(O)COc2ccc(Cl)c(Cl)c2)CC1 (centres unmarked) [CU173]	98	43	20	30		toxic
OC(CNC1CCNCC1)COc1ccc(Cl)c(Cl)c1 (centres unmarked) [CU174]	98	97	40	18		
CN1CCC(N(C)CC(O)COc2ccc(Cl)c(Cl)c2)C1 (centres unmarked) [CU175]	108	95	65	22		
CNC1CCN(CC(O)COc2ccc(F)c(F)c2)C1 (centres unmarked) [CU176]	102	111	83	58		
CN(CC(O)COc1ccc(Cl)c(Cl)c1)C1CCNCC1 (centres unmarked) [CU177]	101	96	45	16		
